In one test the test system is caspase 3/7. Nature of the test: Inhibition of camptothecin-induced activation of caspase 3/7 in SK-N-MC cells. The class given is cell-based, human. The settings on record: 100 μM mevalonate with NST0037 pretreatment. The method, then:
The assay was performed on human neuroblastoma SK-N-MC cells in culture from the American Type Culture Collection (ATCC), in all cases strict rules of sterility were followed and the manipulation was performed in class II biological safety cabinets following European standard EN 12469. The cells were maintained in the following culture medium: Minimum Essential Medium Eagle (MEM) supplemented with 1 mM sodium pyruvate, 2 mM L-glutamine, 0.1 mM non-essential amino acids, 0.05 mg/ml gentamicin and 10% fetal bovine serum. The induction of apoptosis on the cells in culture was performed by means of incubation with camptothecin (CPT), which triggers cell apoptosis activation. The apoptosis was determined by means of the measurement of the activation of effector caspases, caspase 3 or caspase 7, for which a kit for the fluorometric detection of active caspase 3/7 (Apo-ONE® Homogeneous Caspase-3/7, Promega) was used. The active caspase 3 or 7 of the cells cause the rupture of a substrate, which leads to fluorescence emission, which is read by means of a fluorometer. The effect of the pretreatment of compound NST0037 at 10 and 40 μM on the activation of caspase 3/7 caused by 50 μM of camptothecin (CPT) in the SK-N-MC cells was thus analyzed. These cells, not exceeding 15 passages, were seeded on 96-well plates treated for adherent cells with a cell concentration of 5×10^4 cells/well, 3 wells of the plate were seeded for each condition of the assay. After 24 hours of cell incubation at 37° C. and 5% CO2, the pretreatment with NST0037 at 10 and 40 μM was performed. […] On the following day, fluorescence was measured (499/521 nm, […]).

Test [1] has as its system human neuroblastoma SK-N-MC cells. Briefly: Inhibition of camptothecin-induced apoptosis by flow cytometry (sub-G1). The class given is cell-based. The settings on record: pretreatment 40 μM NST0037 with 100 μM mevalonate. On the procedure: (§1) The assay was performed on human neuroblastoma SK-N-MC cells in culture from the American Type Culture Collection (ATCC), in all cases strict rules of sterility were followed and the manipulation was performed in class II biological safety cabinets following European standard EN 12469. The cells were maintained in the following culture medium: Minimum Essential Medium Eagle (MEM) supplemented with 1 mM sodium pyruvate, 2 mM L-glutamine, 0.1 mM non-essential amino acids, 0.05 mg/ml gentamicin and 10% fetal bovine serum.
The inhibition caused by compound NST0037 against apoptosis (programmed cell death) caused by treatment with camptothecin which inhibits the enzyme Topoisomerase I, which prevents DNA duplication and triggers apoptotic cell death, was analyzed. These cells, not exceeding 15 passages, were seeded on 6-well plates treated for adherent cells with a cell concentration of 8×10^5 cells/well and 7×10^5 cells/well for the assay with pretreatment; 2 wells of the plate were seeded for each condition of the assay.
After 24 hours of cell incubation at 37° C. and 5% CO2, the cell treatments were performed with 2 ml of total volume for the following conditions: • Control: culture medium (medium) • Camptothecin: medium plus camptothecin 50 μM. • Camptothecin plus Z-VAD-fmk: medium plus 50 μM camptothecin plus 50 μM Z-VAD-fmk, as positive inhibition control. • Camptothecin plus NST0037: medium plus 50 μM camptothecin plus NST0037 at 10, 40 or 100 μM.
In the assay with pretreatment, the cells were previously treated with 40 μM of NST0037, 100 μM of mevalonate or both together for 24 hours and then they were treated with 50 μM camptothecin, the rest of the procedure was similar to the assay without pretreatment.
The cells were incubated (at 37° C. and 5% CO2) with these treatments for 6 hours, after which time they were collected along with their culture medium and centrifuged at 300×g for 5 minutes. The medium was removed, a washing was performed with PBS and the cells were fixed for 2 minutes with 500 μl of 70% ethanol at −20° C. Once fixed, they were centrifuged at 400×g for 5 minutes, washed with PBS and 0.05 mg/ml propidium iodide, diluted in cycling buffer (0.1% sodium citrate, 0.3% Nonidet P-40 and 0.02 mg/ml RNase) were added and they were incubated for 1 hour at 37° C. After this time they were analyzed by flow cytometry, comparing the fluorescence of propidium iodide against the amount of DNA. The percentage of apoptosis was measured on the sub-G1 region of each of the conditions.
A general note: A flow cytometer gives signals particle by particle.

The test system is the same in test [2]. Briefly: Protection against neuronal death induced by oxidative stress (xanthine/xanthine oxidase), WST-1. The class given is cell-based. On the procedure: as §1
The inhibition caused by compound NST0037 of cell death caused by treatment with xanthine/xanthine oxidase which generates oxidative damage (causes free radicals such as hydrogen peroxide, superoxide anion, hydroxyl radical), which triggers cell death, was analyzed. These cells, not exceeding 15 passages, were seeded on 96-well plates treated for adherent cells with a cell concentration of 5×10^4 cells/well; 3 wells of the plate were seeded for each condition of the assay.
After 24 hours of cell incubation at 37° C. and 5% CO2, the cell treatments were performed with 100 μl of total volume for the following conditions: • Control: culture medium (medium) • Xanthine/xanthine oxidase (XXO): medium plus 10 μM xanthine/60 mU/mL xanthine oxidase, causing the death of 50% of the cells. • XXO plus NST0037: medium plus XXO (10 μM/60 mU/mL) plus NST0037 at 1, 4, 10, 20, 40 or 100 μM.
The cells were incubated (at 37° C. and 5% CO2) with these treatments for 22 hours, after which time the WST-1 reagent (Roche) was added. The Test WST-1 is based on the measurement of metabolic activity. Cell damage causes the loss of the ability of cells to obtain the energy necessary to maintain their metabolic functions and cell growth, therefore the metabolically active (live) cells reduce tetrazolium salt to formazan by means of the succinate-tetrazolium reductase system (of the mitochondrial respiratory chain). The formazan which is formed can be detected colorimetrically since it has an absorbance of 440 nm. The reading was taken in a plate reader at 440 nm 2 hours after adding the reagent.
The assay was performed on human neuroblastoma SK-N-MC cells in culture from the American Type Culture Collection (ATCC), in all cases strict rules of sterility were followed and the manipulation was performed in class II biological safety cabinets following European standard EN 12469. […]
The effect of mevalonate on the protection caused by compound NST0037 against cell death caused by the treatment with xanthine/xanthine oxidase generating oxidative damage and cell death was analyzed. […]
(In general: Tetrazolium dyes change colour on reduction, which living cells bring about.)

`CC(O)(CCO)CC(=O)O` (stereo not shown) [mevalonate, reference compound]: the “effect of mevalonate on inhibition of caspase 3/7 by NST0037” value in the test with caspase 3/7 is “reverted this inhibition”. Moreover, the “effect of mevalonate on the protection exerted by NST0037 against apoptosis” value in test [1] is “partially inhibited”. Moreover, the “effect of mevalonate on protection by NST0037 against death by XXO” value in test [2] (40 μM NST0037 plus mevalonate at 10, 40 and 100 μM) was “inhibited”. The “protection by mevalonate alone against death by XXO” value in test [2] (mevalonate at 10, 40 or 100 μM) is “does not protect against death by XXO”.
